Values quoted from earlier work as cited in patent publication US20210077514A1, “Nutraceutical Composition for Improving Overall Health” (priority 2019, published 2021).
Read-outs that look alike come from different tables or passages of the source.

Assays:
[1] = young healthy adult female human subjects
[2] = spontaneously hypertensive corpulent rats; mice on high fat plus high fructose diets
[3] = test system: superoxide dismutase, thioredoxin reductase, paraoxonase; settings: oxidative-induced rabbits, diet supplement
[4] = 0.08% astaxanthin fed, vs control group
[5] = compared to canthaxanthin and β-carotene
[6] = aging mice, long-term treatment
[7] = diabetic mice vs control group
[8] = test system: lipid peroxidation; settings: ethanol induced gastric ulcer rats and skin cancer rats; astaxanthin and its esters
[9] = not given; remark: listed apart in the source
[10] = not given; remark: listed apart in the source
[11] = in vivo
[12] = aged mice
[13] = AD-model mice
[14] = FXN-KO mouse
[15] = test system: brain cell
[16] = aged mice, one week's treatment
[17] = not given; remark: listed apart in the source
[18] = test system: photoreceptor; settings: in vivo
[19] = test system: MCF-7 breast cancer cells
[20] = patients with T2DM
[21] = test system: senescent cells; settings: H2O2-induced, via activation of AMPK pathway
[22] = test system: HepG2 cells; settings: HepG2 cells and primary hepatocytes
[23] = chronic heart failure patients
[24] = from the liver into the bile
[25] = test system: adipocytes; settings: mouse, in vivo
[26] = in vivo; remark: listed apart in the source
[27] = test system: glial cells
[28] = test system: leukaemia cells
[29] = after 3 years
[30] = mouse model
[31] = 8-10 years after therapy
[32] = type 2 diabetes and mild to moderate depression
[33] = test system: diploid fibroblasts and mesenchymal stem cells
[34] = 850 mg twice daily, mean follow-up ~3 years
[35] = test system: nematodes
[36] = not given; remark: listed apart in the source

CC1=C(/C=C/C(C)=C/C=C/C(C)=C/C=C/C=C(C)/C=C/C=C(C)/C=C/C2=C(C)C(=O)[C@@H](O)CC2(C)C)C(C)(C)C[C@H](O)C1=O [astaxanthin]
DNA oxidative damage biomarker [1]: reduced the DNA oxidative damage biomarker
activity of natural killer cells (eight week supplementation): improved activity of natural killer cells
blood levels of astaxanthin (in vivo): increased blood levels of astaxanthin
insulin sensitivity [2]: Improved insulin sensitivity
paraoxonase activity in serum [3]: inhibited
superoxide dismutase and thioredoxin reductase activity in serum [3]: enhanced activity of superoxide dismutase and thioredoxin reductase
heart mitochondrial membrane potential and contractility index [4]: higher heart mitochondrial membrane potential and contractility index
antitumor activity [5]: significant antitumor activity
age-related oxidative stress and inflammatory response [6]: prevented the accumulation of age-related oxidative stress and inflammatory response
urinary albumin level [7]: significantly lower than the control group
anti-lipid peroxidation activity [8]: 80%

NC(=O)c1ccc[n+]([C@@H]2O[C@H](COP(=O)([O-])O)[C@@H](O)[C@H]2O)c1 [Nicotinamide Mononucleotide, nicotinamide mononucleotide]
impaired tolerance of glucose ([9]; only one dose): sufficient in normalizing the impaired tolerance of the glucose
levels of NAD+ ([9]; over sixty minutes): significant rises within the levels of NAD+
intolerance of glucose ([10]; in vivo): reversal of the intolerance of glucose
levels of NAD+ ([10]; liver and muscle): significantly increased
NAD+ levels within the heart [11]: increase the NAD+ levels within the heart
protection of heart from I/R injuries [11]: protect the heart from injuries of I/R
aortic stiffness [12]: normalizing the aortic stiffness
cognition [13]: restore cognition within AD-model mice
cardiac function [14]: restored near the normal levels
death rate of brain cell [15]: lower the death rate of brain cell
cells after DNA damage repair [16]: indistinguishable from the cells of the young mice
homeostasis of mitochondria and biochemical markers of muscle-health ([17]; 22 months old mice, to level of six months old mice): restore the homeostasis of mitochondria
age-related physiological declines ([17]; old mice): reduce the age-related physiological declines
degeneration of photoreceptor [18]: prevent degeneration of photoreceptor

COc1ccc2cc3[n+](cc2c1OC)CCc1cc2c(cc1-3)OCO2 [berberine]
proliferation of MCF-7 breast cancer cells [19]: inhibits the proliferation
alanine and aspartate transaminase levels [20]: reduces alanine and aspartate transaminase levels
development of senescence [21]: significantly prevented the development of senescence
cholesterol and triglyceride synthesis [22]: inhibit cholesterol and triglyceride synthesis
frequency and complexity of ventricular premature complexes [23]: decreased the frequency and complexity of ventricular premature complexes
left ventricular ejection fraction [23]: increased the left ventricular ejection fraction
cholesterol excretion [24]: increases cholesterol excretion from the liver into the bile
adipocytes [25]: shrunk adipocytes
serum cholesterol, triglycerides and LDL-C [26]: reduced serum cholesterol, triglycerides and LDL-C

Oc1ccc(C=Cc2cc(O)cc(O)c2)cc1 [resveratrol]
uptake of glutamate [27]: increase the uptake of glutamate
growth rate of leukaemia cells [28]: stop the growth rate of leukaemia cells

CN(C)C(=N)N=C(N)N [metformin]
body weight, LDL-cholesterol, atherosclerosis progression [29]: reductions in body weight, LDL-cholesterol
carotid artery intima-media thickness (primary outcome) [29]: no difference in the primary outcome
lifespan and health span [30]: extends both lifespan and health span
cognitive function, impact of long-term use [31]: did not show negative impact
depressive symptoms [32]: improved depressive symptoms
aging in human cells ([33]; chronic low-dose treatment): delays aging in human cells
expression of GPx7 ([33]; low-dose treatment, by activating Nrf2): upregulates the expression of endoplasmic reticulum-localized GPx7
reduction of incidence of T2DM compared to placebo [34]: 31%
lifespan [35]: extends the lifespan of nematodes
reduction of likelihood of CVD ([36]; otherwise healthy individuals): 6%
reduction of likelihood of CVD ([36]; those at high cardiovascular risk): 48%
reduction of likelihood of CVD ([36]; those at risk of frailty): 18%
